From ChEMBL document CHEMBL1133637, “Identification of MK-944a: a second clinical candidate from the hydroxylaminepentanamide isostere series of HIV protease inhibitors” (J Med Chem, 2000)
Each block holds one molecule with its values, some of them ahead of it.

Columns and labels:
[1] = molecular target: T1, Human immunodeficiency virus type 1 protease (Human immunodeficiency virus 1, UniProt Q72874); test: Concentration required for 50% inhibition of Protease
[2] = molecular target: Human immunodeficiency virus type 1 protease (Human immunodeficiency virus 1) (UniProt Q72874); test: Concentration required for 95% inhibition of Protease
[3] = Maximal plasma concentration in dogs at 10mg/kg oral dose 0.05M citric acid; conditions: dog
[4] = molecular target: Human immunodeficiency virus type 1 protease (Human immunodeficiency virus 1) (UniProt Q72874); test: Inhibition of HIV-1 protease in vitro.
[5] = molecular target: T1, Human immunodeficiency virus type 1 protease
[6] = Partition coefficient (logP); conditions: octanol/water
in vivo = conditions: dog, po, 10 mg/kg
[7] = molecular target: Human immunodeficiency virus type 1 protease (Human immunodeficiency virus 1) (UniProt Q72874); test: Concentration required for 95%Inhibition of Protease

SMILES: CC(C)(C)NC(=O)[C@@H]1CN(C(=O)c2cnc3occc3c2)CCN1C[C@@H](O)C[C@@H](Cc1ccccc1)C(=O)NC1c2ccccc2C[C@H]1O (stereo not given in full)
IC50 [1]: 1.7 nM
IC95 [2]: 100 nM
Cmax [3]: 130 nM

SMILES: CCOc1ccc(CN2CCN(C[C@@H](O)C[C@@H](Cc3ccccc3)C(=O)NC3c4ccccc4C[C@H]3O)[C@H](C(=O)NC(C)(C)C)C2)cn1 (stereo not given in full)
IC95 [4]: 100 nM
IC50 [5]: 3.4 nM
Cmax [3]: 300 nM
logP [6]: 3.62

SMILES: CC(C)(C)NC(=O)[C@@H]1CN(Cc2ccc(Cl)nc2)CCN1C[C@@H](O)C[C@@H](Cc1ccccc1)C(=O)NC1c2ccccc2C[C@H]1O (stereo not given in full)
IC95 [4]: 12 nM
IC50 [5]: 0.49 nM
logP [6]: > 3.84

SMILES: Cc1cc2oc(CN3CCN(C[C@@H](O)C[C@@H](Cc4ccccc4)C(=O)NC4c5ccccc5C[C@H]4O)[C@H](C(=O)NC(C)(C)C)C3)cc2cn1 (stereo not given in full)
IC95 [4]: 12 nM
IC50 [5]: 0.19 nM

SMILES: Cc1nn(C)c2ncc(CN3CCN(C[C@@H](O)C[C@@H](Cc4ccccc4)C(=O)NC4c5ccccc5C[C@H]4O)[C@H](C(=O)NC(C)(C)C)C3)cc12 (stereo not given in full)
IC50 [1]: 0.35 nM
IC95 [2]: 6 nM
Cmax [3]: 190 nM

SMILES: Cc1c(CN2CCN(CC(O)CC(Cc3ccccc3)C(=O)NC3c4ccccc4CC3O)C(C(=O)NC(C)(C)C)C2)oc2ccccc12 (stereo not given)
IC50 [1]: 0.11 nM
IC95 [2]: 25 nM
Cmax [3]: 408 nM

SMILES: COc1ncccc1CN1CCN(C[C@@H](O)C[C@@H](Cc2ccccc2)C(=O)NC2c3ccccc3C[C@H]2O)[C@H](C(=O)NC(C)(C)C)C1 (stereo not given in full)
IC95 [4]: 12 nM
IC50 [5]: 1.1 nM
Cmax [3]: 515 nM
logP [6]: > 3.84

SMILES: CCOC(=O)c1cnc2oc(CN3CCN(CC(O)CC(Cc4ccccc4)C(=O)NC4c5ccccc5CC4O)C(C(=O)NC(C)(C)C)C3)cc2c1 (stereo not given)
IC50 [1]: 0.27 nM
IC95 [2]: 25 nM

SMILES: CC(C)(C)NC(=O)C1CN(Cc2cc3cccnc3o2)CCN1CC(O)CC(Cc1ccccc1)C(=O)NC1c2ccccc2CC1O (stereo not given)
IC95 [4]: 50 nM
IC50 [5]: 0.32 nM
Cmax [3]: 1170 nM

SMILES: CC(C)(C)NC(=O)[C@@H]1CN(Cc2cnc3occc3c2Cl)CCN1C[C@@H](O)C[C@@H](Cc1ccccc1)C(=O)NC1c2ccccc2C[C@H]1O (stereo not given in full)
IC95 [4]: 15.6 nM
concentration at 8 h (in vivo): 2060 nM
IC50 [5]: 0.25 nM
Cmax [3]: 3940 nM

SMILES: CC(C)(C)NC(=O)C1CN(Cc2c[nH]c3ccccc23)CCN1CC(O)CC(Cc1ccccc1)C(=O)NC1c2ccccc2CC1O (stereo not given)
IC95 [4]: 50 nM
IC50 [5]: 1.7 nM

SMILES: Cc1nn(C)c2ncc(CN3CCN(C[C@@H](O)C[C@@H](Cc4ccccc4)C(=O)NC4c5ccccc5C[C@H]4O)[C@H](C(=O)NC(C)(C)C)C3)c(Cl)c12 (stereo not given in full)
IC50 [1]: 0.14 nM
IC95 [2]: 12.5 nM

SMILES: CC(C)(C)NC(=O)[C@@H]1CN(Cc2cc3cnccc3o2)CCN1C[C@@H](O)C[C@@H](Cc1ccccc1)C(=O)NC1c2ccccc2C[C@H]1O (stereo not given in full)
IC95 [4]: 6 nM
IC50 [5]: 0.22 nM

SMILES: CC(C)(C)NC(=O)[C@@H]1CN(Cc2cc3ccncc3o2)CCN1C[C@@H](O)C[C@@H](Cc1ccccc1)C(=O)NC1c2ccccc2C[C@H]1O (stereo not given in full)
IC95 [4]: 12.5 nM
IC50 [5]: 0.39 nM
Cmax [3]: 36500 nM

SMILES: CC(C)(C)NC(=O)[C@@H]1CN(Cc2cnc3ccoc3c2)CCN1C[C@@H](O)C[C@@H](Cc1ccccc1)C(=O)NC1c2ccccc2C[C@H]1O (stereo not given in full)
IC95 [4]: 3 nM
concentration at 8 h (in vivo): 1550 nM
IC50 [5]: 0.17 nM
Cmax [3]: 9720 nM

IC95 [4]: 50 nM
SMILES: CC(C)(C)NC(=O)[C@@H]1CN(Cc2cccnc2)CCN1C[C@@H](O)C[C@@H](Cc1ccccc1)C(=O)N[C@H]1c2ccccc2C[C@H]1O

SMILES: CC(C)(C)NC(=O)C1CN(Cc2csc3ncccc23)CCN1CC(O)CC(Cc1ccccc1)C(=O)NC1c2ccccc2CC1O (stereo not given)
IC95 [7]: 6 nM
IC50 [1]: 0.2 nM
Cmax [3]: 230 nM

SMILES: CC(C)(C)NC(=O)[C@@H]1CN(Cc2nc3ccccc3[nH]2)CCN1C[C@@H](O)C[C@@H](Cc1ccccc1)C(=O)NC1c2ccccc2C[C@H]1O (stereo not given in full)
IC95 [4]: 200 nM
IC50 [5]: 0.47 nM

SMILES: CC(C)(C)NC(=O)[C@@H]1CN(Cc2cc3ccccc3o2)CCN1C[C@@H](O)C[C@@H](Cc1ccccc1)C(=O)N[C@H]1c2ccccc2C[C@H]1O [L 756423]
IC95 [4]: 25 nM
concentration at 8 h (in vivo): 800 nM
IC50 [5]: 0.18 nM
Cmax [3]: 28300 nM

SMILES: CC(C)(C)NC(=O)[C@@H]1CN(Cc2cnc3c(c2)CCO3)CCN1C[C@@H](O)C[C@@H](Cc1ccccc1)C(=O)NC1c2ccccc2C[C@H]1O (stereo not given in full)
IC95 [4]: 25 nM
IC50 [5]: 0.68 nM
Cmax [3]: 160 nM

SMILES: CSc1ncccc1CN1CCN(C[C@@H](O)C[C@@H](Cc2ccccc2)C(=O)NC2c3ccccc3C[C@H]2O)[C@H](C(=O)NC(C)(C)C)C1 (stereo not given in full)
IC95 [4]: 15.6 nM
IC50 [5]: 0.26 nM

SMILES: CC(C)(C)NC(=O)C1CN(Cc2ccc3occc3c2)CCN1CC(O)CC(Cc1ccccc1)C(=O)NC1c2ccccc2CC1O (stereo not given)
IC95 [4]: 100 nM
IC50 [5]: 1.7 nM

SMILES: CC(C)(C)NC(=O)[C@@H]1CN(Cc2cnc3ccccc3c2)CCN1C[C@@H](O)C[C@@H](Cc1ccccc1)C(=O)NC1c2ccccc2C[C@H]1O (stereo not given in full)
IC95 [4]: 25 nM
IC50 [5]: 0.14 nM

SMILES: Cc1ccc(CN2CCN(C[C@@H](O)C[C@@H](Cc3ccccc3)C(=O)NC3c4ccccc4C[C@H]3O)[C@H](C(=O)NC(C)(C)C)C2)cn1 (stereo not given in full)
IC95 [4]: 100 nM
IC50 [5]: 0.62 nM
logP [6]: 2.14

SMILES: CC(C)(C)NC(=O)[C@@H]1CN(Cc2cnc3occc3c2)CCN1C[C@@H](O)C[C@@H](Cc1ccccc1)C(=O)N[C@H]1c2ccccc2C[C@H]1O
IC95 [4]: 6 nM
concentration at 8 h (in vivo): 9430 nM
IC50 [5]: 0.35 nM
Cmax [3]: 15000 nM

IC95 [4]: 6 nM
SMILES: CC(C)(C)NC(=O)[C@@H]1CN(Cc2cc3ccsc3s2)CCN1C[C@@H](O)C[C@@H](Cc1cccnc1)C(=O)N[C@H]1c2ccccc2C[C@H]1O

SMILES: CC(C)(C)NC(=O)C1CN(Cc2cc3cc(CO)cnc3o2)CCN1CC(O)CC(Cc1ccccc1)C(=O)NC1c2ccccc2CC1O (stereo not given)
IC50 [1]: 0.18 nM
IC95 [2]: 62.5 nM

SMILES: CC(C)(C)NC(=O)C1CN(Cc2cc3cccnc3s2)CCN1CC(O)CC(Cc1ccccc1)C(=O)NC1c2ccccc2CC1O (stereo not given)
IC95 [4]: 12.5 nM
IC50 [5]: 0.11 nM
